Results on 3 compounds are retold here after patent publication US5629198A (priority 1991, dated 1997).

Series [1] deals with HTLV-IIIB in MT-4 cells. Nature of the series: Anti-HIV effect: TCID50 of infectious virus from infected MT-4 cells (Test Example 5). Format: cell-based, HIV (HTLV-IIIB). The settings on record: for TCID50 (quantity of infectious virus): 4 days, positive control 3.31 × 10^7; for proliferation inhibiting effect on HIV: summary. The protocol:
The inhibitory effects of test substances on the cytopathy and HIV antigen production of MT-4 cells due to HIV infection were determined.
MT-4 cells belonging to a cell strain persistently infected with HTLV-1 are high in sensitivity to HIV and promptly die out when infected. MT-4/HIV cells which are MT-4 cells infected with HIV are used for screening anti-HIV agents making good use of this nature.
After MT-4 cells (1.2×10^7 cells) were infected for 2 hours at 37° C. with 3.2 ml of HTLV-IIIB (10^7 TCID50 /ml) obtained from a culture supernatant of a cell strain persistently infected with HIV, i.e., […], the cells were washed. After the cells were then inoculated on a 48-well microplate in a proportion of 1×10^5 cells/well, the test substances were separately added in an amount of 100 μl. As a negative control, there was used a culture obtained by adding 3.2 ml of a culture supernatant after culturing MOLT-4 cells for 3 days to MT-4 cells (4.7×10^6 cells), conducting culture for 2 hours at 37° C., washing the cells in the same manner as described above, inoculating them in a proportion of 1×10^5 cells/well and adding PBS in place of the test substances.
Upon elapsed time of 4 days after the culture, each supernatant was assayed on a P24gag protein based on an EIA kit produced by Abbott Labs, and the number of living cells was counted by the Trypan Blue dye exclusion method, and moreover, TCID50 indicative of an actual quantity of infectious virus was calculated.

The conditions of series [2]: in vivo; cited from earlier work.
Series [3] has as its system cells persistently infected with HIV. As to conditions: cited from earlier work.
The test system of series [4] is MOLT-4/ARV. Nature of the series: Killing effect on cells persistently infected with HIV (Test Example 1), trypan blue. Format: cell-based, human. The settings on record: 3 days. Here is the method: (§1) The cell killing effects of test substances were determined using a cell strain persistently infected with HIV in MOLT-4 cells and MOLT-4 cells.
(§2) MOLT4/HTLV-IIIB, MOLT4/ARV and MOLT4 cell strains were separately inoculated in proportions of 4×10^4 cells/well (200 μl) on a 96-well plate, and the above test substances in various concentrations were separately added in an amount of 20 μl thereto. After each cell sample was cultured for 3 days at 37° C. in the presence of 5% CO2, the culture was diluted to a triple or quadruple amount, thereby counting the number of living cells by a trypan blue dye exclusion test. As a control, 20 μl of PBS were added in place of each test substance. Each numerical value is expressed in terms of the percentage of living cells to the control.

Series [5] relates to MOLT-4/HTLV-IIIB. Described as above. Format: cell-based, human. The settings on record: for killing effect on HIV-infected cells: summary. Here is the method:
as §1, §2

Series [6] deals with MOLT-4. Nature of the series: Killing effect on uninfected cells (Test Example 1), trypan blue. The settings on record: 3 days. It is filed as cell-based, human. Here is the method:
as §1, §2

The test system of series [7] is Molt-4/C18 cells infected with Molt-4/HTLV-IIIB culture supernatant. Kind of series: Inhibiting effect on cytopathy, MTT assay (Test Example 8 (2)). Format: cell-based. As to conditions: Homo sapiens, MOLT-4, 96 h, read-out: Number of living cells. Here is the method:
(2) The inhibiting effects of test substances on the formation of multinucleated giant cells and on cytopathy in a Molt-4/C18 cell-infected system were investigated.
Molt-4/C18 cells in a logarithmic growth phase were inoculated in a proportion of 2×10^4 cells/well (20 μl) on a 96-well flat-bottom plate, and 30 μl of a culture supernatant of Molt-4/HTLV-IIIB cells were added. Then, solutions of the test substances in various concentrations were separately added in an amount of 50 μl, followed by their culture at 37° C. under conditions of 5% CO2. To wells for a positive control, 50 μl of a culture medium were added in place of the solution of each test substance, while to wells for a negative control, 30 μl of the culture medium were added instead of the culture supernatant. Defining the day the culture was started as Day 0, the culture was continuously conducted for 4 days to observe a state of formation of multinucleated giant cells and to count the number of living cells by the MTT assay.
On the technique in general: Formazan colour is commonly taken as a measure of viable cells.

The test system of series [8] is MT-4/LAV-infected system. As to conditions: cited from earlier work.
Setting [9] is: Homo sapiens, MOLT-4, 72 h, 1 μM, read-out: living cells (percentage to the control).

In the case of `Cc1cn([C@H]2C[C@H](N=[N+]=[N-])[C@@H](CO)O2)c(=O)[nH]c1=O` [AZT, 3'-azido-3'-deoxythymidine], the “TCID50 (quantity of infectious virus)” value in series [1] (1 μM) was 5.94 × 10^4 TCID50 /ml. Besides, the side effects entry in series [2] was “a myelodepresant effect is remarkably observed as a side effect in addition to headache and gastrointestinal disorders”. For the same compound, the “effect on cells already infected with HIV” value in series [3] is “no effect on cells already infected with HIV”. For the same compound, in series [4] (setting [9]), the viability at 1 µM was 82%. Besides, the viability at 1 µM in series [5] (Homo sapiens, MOLT-4, 72 h, 1 μM, 3 days, read-out: living cells (percentage to the control)) was found to be 71%. Besides, in series [6] (setting [9]), the viability at 1 µM was found to be 55%. Further, the viability at 25 µM in series [7] (25 (μM), 4 days, positive control 27) came out at 84%. Also, in series [7], the viability at 0.004 µM was 42%, the viability at 0.02 µM was 69%, the viability at 0.1 µM was 79% and the viability at 0.5 µM was found to be 84%.

For `C=CC1=C(C)c2cc3[nH]c(cc4nc(cc5[nH]c(cc1n2)c(C)c5CCC(=O)O)C(CCC(=O)O)=C4C)c(C)c3C=C` [protoporphyrin], the anti-HIV activity result in series [8] is reported as “exhibits an anti-HIV activity”. The “proliferation inhibiting effect on HIV” value in series [1] is reported as “have a proliferation inhibiting effect on HIV”. The “killing effect on HIV-infected cells” value in series [5] is given as “no killing effect on HIV-infected cells”.

Consider `C=CC1=C(C)c2cc3[n-]c(cc4[n-]c(cc5nc(cc1n2)C(C)=C5C=C)c(C)c4CCC(=O)O)c(CCC(=O)O)c3C.[Cl-].[Fe+3]` [Hemin], for which the “TCID50 (quantity of infectious virus)” value in series [1] (10 μM) is reported as 1.52 × 10^7 TCID50 /ml. Also, in series [1], the “proliferation inhibiting effect on HIV” value is “have a proliferation inhibiting effect on HIV”. Also, the “living cells (percentage to the control)” value in series [4] (10 μM) is reported as 94%; in series [4] (40 μM) it was 93%; in series [5] (10 μM, 3 days), 100%; in series [5] (40 μM, 3 days) it was 90%; in series [6] (10 μM) it was 98%; in series [6] (40 μM) it was 99%. Further, the “killing effect on HIV-infected cells” value in series [5] is “no killing effect on HIV-infected cells”.
